These results are taken from patent publication US20250145606A1 (Arcus Biosciences, Inc., priority 2023, published 2025).

The target of test [1] is c-Kit (Homo sapiens (Human), UniProt P10721). The test can be described thus: Inhibition of c-Kit kinase activity (HTRF KinEASE-TK). Conditions: biochemical, HTRF KinEASE-TK. The class given is biochemical. Put shortly: (§1)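 Recombinant kinases (2 nM CSF1R and c-Kit, 10 nM PDGFRα/β, 2× working) preincubated 1 h with compound in 50 mM HEPES pH 7.4, 5 mM MgCl2 (c-Kit) or 10 mM (others), 2 mM MnCl2; 2× ATP: c-Kit 16 μM, PDGFRα 1 μM, PDGFRβ 40 μM, CSF1R 20 μM. 120 min reaction at rt; TR-FRET 665/620 nm; IC50 by 4-parameter fit.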

Test [2] concerns the target CSF1R (Homo sapiens (Human), UniProt P07333). The experiment in a line: Inhibition of CSF1R kinase activity (HTRF KinEASE-TK). Conditions: biochemical, HTRF KinEASE-TK. Put shortly: as §1
Test [3] has as its system Phospho-KIT (Y703) in M07e cells. The experiment in a line: Phospho-KIT (Y703) cellular assay in M07e cells. Conditions: M-07e; Phospho-KIT (Y703), M07e cells; read-out: M07e Cell IC50. The test is classed as cell-based. The procedure:
Phospho-KIT (Y703) Cellular Assay in M07e Cells
The day prior to assay, M07e cells (DSMZ, catalog #ACC 104) were serum starved. Cells were centrifuged and cell pellet resuspended in OptiMEM (Gibco, catalog #31985062) to a density of 1×10^6-2.5×10^6 cells per mL. Cells were then incubated overnight at 5% CO2 and 37° C. in an appropriately sized flask. On the day of the experiment, an 11 point, half log titration of test compound was pre-dispensed into 96-well round bottom polypropylene plates (Corning, catalog #3365). The serum starved M07e cells were centrifuged and resuspended to a cell density of 1×10^6 cells per mL with DPBS (Gibco, catalog #14190-144). Live/Dead Green Fixable viability dye (Invitrogen, catalog #L34970) was added as 1 μL/1 mL of cell suspension. Cells were then incubated in the dark at 4° C. for 30 min. Cells were washed by centrifugation and resuspension with DPBS+0.5% BSA (Gemini Bio Products, catalog #700110/100, 30% BSA solution). Cells were resuspended, separated into two equal volumes and again centrifuged. Cell pellets were resuspended with OptiMEM™ to a cell density of 1×10^6 cells per mL. Cells were then added to the appropriate compound plate at 100,000 cells per well in 100 μL and mixed. Plates were incubated at 5% CO2 and 37° C. for 50 min. Stem Cell Factor, SCF (R&D Systems, #255-SC/CF) was diluted in OptiMEM to 1 μg/mL and added to all wells as 10 μL for a final concentration of 90.9 ng/mL. Plates were incubated at 5% CO2 and 37° C. for 10 min. Incubation was stopped by addition of 110 μL 4% paraformaldehyde solution in PBS (Life Technologies, catalog #J19943.K2). Plates were incubated at rt for at least 15 min. Plates were then centrifuged and supernatant removed by flicking. Cells were washed once by resuspension in 200 μL DPBS+0.5% BSA, centrifuged, and supernatant removed by flicking. Cells were resuspended in 100 μL 1X Permeabilization buffer (Invitrogen, catalog #88882400) and plates incubated at rt for 30 min. Plates were centrifuged, supernatant removed by flicking, and cells resuspended in 50 μL primary antibody, anti-phospho-c-KIT (Tyr703) (Cell Signaling, catalog #3073), diluted to 1 μg/mL with permeabilization buffer. Plates were incubated at rt for 1 h. Plates were centrifuged, supernatant removed, and cells resuspended with 200 μL DPBS+0.5% BSA. Plates were again centrifuged, supernatant removed by flicking, and cells resuspended in 100 μL secondary antibody, goat anti-rabbit AlexaFluor647 (AF647) (Invitrogen, catalog #A21244) diluted to 1 μg/mL with DPBS+0.5% BSA. Plates were incubated at rt for 30 min. followed by centrifugation, supernatant removal, and cell resuspension with 200 μL DPBS+0.5% BSA. Cells were washed again by centrifugation, supernatant removal, and cell resuspension with 200 μL DPBS+0.5% BSA. Samples were then read by flow cytometry. The Forward: Side scatter plot was gated and that population was gated for live cells based on the Live/Dead Green staining. The geometric mean of AF647 of the live cell population was recorded. Percentage maximum activity in each test well was calculated based on DMSO (100% activity) and positive control treated cell wells (0% activity). The potencies (IC50 values) of test compounds were determined using a standard 4-parameter non-linear regression fit.

Chain of c-Kit (P10721 26-976): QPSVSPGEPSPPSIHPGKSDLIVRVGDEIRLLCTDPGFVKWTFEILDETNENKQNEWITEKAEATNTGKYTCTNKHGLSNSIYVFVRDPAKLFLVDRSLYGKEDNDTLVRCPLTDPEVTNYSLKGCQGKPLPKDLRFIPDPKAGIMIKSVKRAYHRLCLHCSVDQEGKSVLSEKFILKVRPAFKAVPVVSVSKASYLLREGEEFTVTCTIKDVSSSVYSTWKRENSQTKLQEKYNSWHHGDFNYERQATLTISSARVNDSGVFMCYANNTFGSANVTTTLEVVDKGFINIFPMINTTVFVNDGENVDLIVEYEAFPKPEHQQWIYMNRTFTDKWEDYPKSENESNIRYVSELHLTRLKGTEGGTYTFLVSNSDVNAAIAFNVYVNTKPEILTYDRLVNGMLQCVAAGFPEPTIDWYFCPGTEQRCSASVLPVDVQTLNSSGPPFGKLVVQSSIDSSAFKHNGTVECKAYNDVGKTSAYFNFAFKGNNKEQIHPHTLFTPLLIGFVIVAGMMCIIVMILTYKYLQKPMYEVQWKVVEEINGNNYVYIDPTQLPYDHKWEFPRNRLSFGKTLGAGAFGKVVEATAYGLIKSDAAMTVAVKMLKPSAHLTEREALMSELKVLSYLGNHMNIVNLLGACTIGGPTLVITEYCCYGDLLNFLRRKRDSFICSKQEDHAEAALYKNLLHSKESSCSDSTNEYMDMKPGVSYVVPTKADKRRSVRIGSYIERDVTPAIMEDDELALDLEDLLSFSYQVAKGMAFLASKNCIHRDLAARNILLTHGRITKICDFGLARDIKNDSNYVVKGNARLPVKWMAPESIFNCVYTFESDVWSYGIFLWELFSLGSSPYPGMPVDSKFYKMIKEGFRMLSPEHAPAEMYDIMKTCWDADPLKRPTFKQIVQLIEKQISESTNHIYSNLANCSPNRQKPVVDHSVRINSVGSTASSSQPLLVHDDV
Chain of CSF1R (P07333 20-972): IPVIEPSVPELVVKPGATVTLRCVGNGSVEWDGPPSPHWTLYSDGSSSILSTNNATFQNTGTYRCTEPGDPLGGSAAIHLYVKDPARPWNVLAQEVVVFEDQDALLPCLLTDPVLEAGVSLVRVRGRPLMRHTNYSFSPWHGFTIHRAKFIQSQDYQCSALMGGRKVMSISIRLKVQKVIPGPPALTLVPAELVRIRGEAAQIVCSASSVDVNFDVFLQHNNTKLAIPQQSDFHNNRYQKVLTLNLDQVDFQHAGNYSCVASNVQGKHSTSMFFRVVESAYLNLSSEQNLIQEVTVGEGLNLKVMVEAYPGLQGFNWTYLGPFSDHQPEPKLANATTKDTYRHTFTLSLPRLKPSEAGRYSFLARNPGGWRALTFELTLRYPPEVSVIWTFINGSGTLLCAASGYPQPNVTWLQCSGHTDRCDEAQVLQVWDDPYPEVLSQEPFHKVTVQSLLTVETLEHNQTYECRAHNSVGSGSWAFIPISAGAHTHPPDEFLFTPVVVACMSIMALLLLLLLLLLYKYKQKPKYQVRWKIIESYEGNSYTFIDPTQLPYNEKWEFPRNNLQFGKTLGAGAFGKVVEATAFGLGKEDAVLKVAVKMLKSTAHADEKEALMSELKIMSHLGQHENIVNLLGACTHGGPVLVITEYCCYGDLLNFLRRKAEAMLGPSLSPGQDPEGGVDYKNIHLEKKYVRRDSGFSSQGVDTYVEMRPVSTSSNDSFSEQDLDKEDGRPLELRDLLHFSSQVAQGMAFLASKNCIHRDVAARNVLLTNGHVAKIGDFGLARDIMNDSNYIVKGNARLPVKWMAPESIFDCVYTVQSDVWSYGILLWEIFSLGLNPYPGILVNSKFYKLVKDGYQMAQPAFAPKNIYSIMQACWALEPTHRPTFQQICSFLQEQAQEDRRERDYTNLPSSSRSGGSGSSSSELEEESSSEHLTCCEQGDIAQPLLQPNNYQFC

Turning to `Cc1ncc(C(=O)Nc2cc(C(=O)Nc3cncc(CC4CC4)n3)c(F)cc2C)s1` [Example 34, N-[5-[[6-(cyclopropylmethyl)pyrazin-2-yl]carbamoyl]-4-fluoro-2-methylphenyl]-2-methyl-1,3-thiazole-5-carboxamide], the concentration for half-maximal inhibition (IC50) is less than 100 nM in test [1], greater than 1000 nM in test [2] and less than 100 nM in test [3].

In the case of `Cc1ncc(C(=O)Nc2cc(C(=O)Nc3cncc(C4CC4)c3)c(F)cc2C)s1` [Example 53, N-[5-[(5-cyclopropylpyridin-3-yl)carbamoyl]-4-fluoro-2-methylphenyl]-2-methyl-1,3-thiazole-5-carboxamide], the IC50 in test [1] is less than 100 nM; in test [2], greater than 1000 nM; in test [3], less than 100 nM.

`Cc1ncc(C(=O)Nc2cc(C(=O)Nc3cccc(C(F)(F)F)n3)c(F)cc2C)s1` [Example 55, N-[4-fluoro-2-methyl-5-[[6-(trifluoromethyl)pyridin-2-yl]carbamoyl]phenyl]-2-methyl-1,3-thiazole-5-carboxamide]: the IC50 in test [1] was less than 100 nM; in test [2], greater than 1000 nM; in test [3] it was less than 100 nM.

Consider `Cc1ncc(C(=O)Nc2cc(C(=O)Nc3cnc(C(F)F)cn3)c(F)cc2C)s1` [Example 56, N-[5-[[5-(difluoromethyl)pyrazin-2-yl]carbamoyl]-4-fluoro-2-methylphenyl]-2-methyl-1,3-thiazole-5-carboxamide], for which the figures for the 50% inhibitory concentration (IC50) in test [1], in test [2] and in test [3] were 100 to 1000 nM, greater than 1000 nM and 100 to 1000 nM, respectively.

For `Cc1ncc(C(=O)Nc2cc(C(=O)Nc3cncc(C(F)F)c3)c(F)cc2C)s1` [Example 76, N-[5-[[5-(difluoromethyl)pyridin-3-yl]carbamoyl]-4-fluoro-2-methylphenyl]-2-methyl-1,3-thiazole-5-carboxamide], the half-maximal inhibitory concentration (IC50) was less than 100 nM in test [1], greater than 1000 nM in test [2] and less than 100 nM in test [3].

On to `Cc1ncc(C(=O)Nc2cc(C(=O)Nc3cncc(C(F)(F)F)c3)c(F)cc2C)s1` [Example 77, N-[4-fluoro-2-methyl-5-[[5-(trifluoromethyl)pyridin-3-yl]carbamoyl]phenyl]-2-methyl-1,3-thiazole-5-carboxamide], for which the IC50 in test [1] is less than 100 nM; in test [2], greater than 1000 nM; in test [3], less than 100 nM.

Turning to `Cc1ncc(C(=O)Nc2cc(C(=O)Nc3cncc(CC(F)(F)F)c3)c(F)cc2C)s1` [Example 81, N-[4-fluoro-2-methyl-5-[[5-(2,2,2-trifluoroethyl)pyridin-3-yl]carbamoyl]phenyl]-2-methyl-1,3-thiazole-5-carboxamide], the half-maximal inhibitory concentration (IC50) in test [1] was less than 100 nM; in test [2], greater than 1000 nM; in test [3], less than 100 nM.

For the compound `Cc1ncc(C(=O)Nc2cc(C(=O)Nc3ccc(CC(F)(F)F)nc3)c(F)cc2C)s1` [Example 98, N-[4-fluoro-2-methyl-5-[[6-(2,2,2-trifluoroethyl)pyridin-3-yl]carbamoyl]phenyl]-2-methyl-1,3-thiazole-5-carboxamide], the IC50 in test [1] is less than 100 nM; in test [2], greater than 1000 nM; in test [3], less than 100 nM.

Regarding `Nc1ncc(C(=O)Nc2cc(C(=O)Nc3ccc(CC(F)(F)F)cn3)c(F)cc2F)s1` [Example 221, 2-Amino-N-[2,4-difluoro-5-[[5-(2,2,2-trifluoroethyl)pyridin-2-yl]carbamoyl]phenyl]-1,3-thiazole-5-carboxamide], the IC50 is less than 100 nM in test [1], 100 to 1000 nM in test [2] and less than 100 nM in test [3].

For `Cc1cc(F)c(C(=O)Nc2cncc(C(F)F)c2)cc1NC(=O)c1cnc(N)s1` [Example 246, 2-Amino-N-[5-[[5-(difluoromethyl)pyridin-3-yl]carbamoyl]-4-fluoro-2-methylphenyl]-1,3-thiazole-5-carboxamide], the 50% inhibitory concentration (IC50) in test [1], in test [2] and in test [3] was less than 100 nM throughout.
